From US20100173834A1, “CYCLIC PEPTIDE MELANOCORTIN RECEPTOR LIGANDS” (priority 2007, published 2010)
Where a SMILES comes first, the peptide text is derived from it. Bridges are numbered along the chain shown (N, C = ends). [ ]: non-standard residue; d: D form.

Columns and labels:
hMC3-R [1] = molecular target: T1, hMC3-R (Homo sapiens, UniProt P41968); experiment: Radioligand binding assay, hMC3-R
T1 construct: expressed in transfected cells; host or cells: CHO-K1
Protocol: (§1) The pellets were resuspended in the same buffer and centrifuged at 50,000 g for 10 minutes at approximately 4° C. The washed pellets containing the cellular membranes were stored at approximately −80° C.
(§2) Filters were washed three times with 50 mM Tris-HCl at pH 7.4 at a temperature of approximately 0-4° C. and then assayed for radioactivity using a Packard Topcount® scintillation counter (GMI, Inc., Ramsey, Minn.).

hMC4-R [2] = molecular target: T2, hMC4-R (Homo sapiens, UniProt P32245); experiment: Radioligand binding assay, hMC4-R
T2 construct: expressed in transfected cells; host or cells: CHO-K1
Protocol: as §1, §2

hMC5-R [3] = molecular target: T3, hMC5-R (Homo sapiens, UniProt P33032); experiment: Radioligand binding assay, hMC5-R
T3 construct: expressed in transfected cells; host or cells: CHO-K1
Protocol: (§3) The CHO-K1 cells expressing the desired hMC-R receptor type were sonicated (Branson, Danbury, Conn.) (etting 7, approximately 30 sec) in ice-cold 50 mM Tris-HCl at pH 7.4 and then centrifuged at 39,000 g for 10 minutes at approximately 4° C. The pellets were resuspended in the same buffer and centrifuged at 50,000 g for 10 minutes at approximately 4° C. The washed pellets containing the cellular membranes were stored at approximately −80° C.
as §2

hMC3-R [4] = molecular target: T1, hMC3-R; experiment: Cyclic AMP bioassay, hMC3-R; format: cell-based
Protocol: (§4) Intracellular cyclic AMP (cAMP) levels were determined by an electrochemiluminescence (ECL) assay (Meso Scale Discovery, Gaithersburg, Md.) (referred to hereinafter as “MSD”). […] Transgenic CHO-K1 cells stably expressing hMC receptor subtypes 1, 3, 4 or 5 were dispensed at a density of approximately 7,000 cells/well in 384-well Multi-Array plates (MSD) containing integrated carbon electrodes and coated with anti-cAMP antibody. Increasing concentrations of the test compounds were added and the cells were incubated for approximately 40 minutes at approximately 37° C. […] At the end of the second incubation period read buffer (Tris-buffered solution containing an ECL co-reactant and Triton X-100 at ph 7.8) was added and the cAMP levels in the cell lysates were immediately determined by ECL detection with a Sector Imager 6000 reader® (MSD). Data were analyzed using a computer-assisted non-linear regression analysis (XL fit; IDBS) and reported as either an EC50 value or a Kb value.
(§5) The Kb value reflects the potency of an antagonist and is determined by Schild analysis. In brief, concentration-response curves of an agonist are carried out in the presence of increasing concentrations of an antagonist. […] It is calculated by extrapolating the line on a Schild plot to zero on the y-axis.

hMC4-R [5] = molecular target: T2, hMC4-R; experiment: Cyclic AMP bioassay, hMC4-R; format: cell-based
Protocol: as §4, §5

hMC5-R [6] = molecular target: T3, hMC5-R; experiment: Cyclic AMP bioassay, hMC5-R; format: cell-based
Protocol: as §4, §5

hMC1-R [7] = molecular target: T4, hMC1-R (Homo sapiens, UniProt Q01726); experiment: Cyclic AMP bioassay, hMC1-R
Protocol: as §4, §5

hMC1-R [8] = molecular target: T4, hMC1-R; experiment: Radioligand binding assay, hMC1-R; set-up: expressed in transfected cells; host or cells: CHO-K1
Protocol: as §3, §2

[9] = molecular target: human melanocortin 1 receptor (human) (UniProt Q01726); experiment: cell-based or functional assay
[10] = molecular target: human melanocortin 3 receptor (human) (UniProt P41968); experiment: cell-based or functional assay
[11] = molecular target: human melanocortin 4 receptor (human) (UniProt P32245); experiment: cell-based or functional assay
[12] = molecular target: human melanocortin 5 receptor (human) (UniProt P33032); experiment: cell-based or functional assay
[13] = molecular target: human melanocortin 3 receptor (human) (UniProt P41968); experiment: competitive displacement of [125I]-NDP-alpha-MSH, membranes of CHO-K1 cells expressing hMC3-R

T4 sequence (Q01726 whole entry): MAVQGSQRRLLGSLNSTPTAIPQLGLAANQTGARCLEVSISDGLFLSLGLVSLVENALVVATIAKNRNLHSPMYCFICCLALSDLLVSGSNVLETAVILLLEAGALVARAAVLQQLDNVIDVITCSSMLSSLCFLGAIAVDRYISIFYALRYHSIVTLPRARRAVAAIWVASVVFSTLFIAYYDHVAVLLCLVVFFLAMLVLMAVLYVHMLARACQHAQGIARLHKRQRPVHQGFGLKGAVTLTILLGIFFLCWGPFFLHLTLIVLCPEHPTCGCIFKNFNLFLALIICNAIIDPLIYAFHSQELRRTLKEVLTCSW
Chain of human melanocortin 1 receptor (human) (Q01726 whole entry): as above
T3 sequence (P33032 whole entry): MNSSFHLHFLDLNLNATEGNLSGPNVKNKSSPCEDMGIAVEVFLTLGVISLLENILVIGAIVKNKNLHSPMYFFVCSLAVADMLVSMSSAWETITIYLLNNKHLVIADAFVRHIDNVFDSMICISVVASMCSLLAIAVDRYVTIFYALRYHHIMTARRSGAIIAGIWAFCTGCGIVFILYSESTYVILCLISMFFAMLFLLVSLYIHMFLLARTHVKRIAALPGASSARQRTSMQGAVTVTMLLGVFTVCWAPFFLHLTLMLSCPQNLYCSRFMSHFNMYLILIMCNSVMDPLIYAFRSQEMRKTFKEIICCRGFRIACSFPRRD
Chain of human melanocortin 5 receptor (human) (P33032 whole entry): as above
T1 sequence (P41968 whole entry): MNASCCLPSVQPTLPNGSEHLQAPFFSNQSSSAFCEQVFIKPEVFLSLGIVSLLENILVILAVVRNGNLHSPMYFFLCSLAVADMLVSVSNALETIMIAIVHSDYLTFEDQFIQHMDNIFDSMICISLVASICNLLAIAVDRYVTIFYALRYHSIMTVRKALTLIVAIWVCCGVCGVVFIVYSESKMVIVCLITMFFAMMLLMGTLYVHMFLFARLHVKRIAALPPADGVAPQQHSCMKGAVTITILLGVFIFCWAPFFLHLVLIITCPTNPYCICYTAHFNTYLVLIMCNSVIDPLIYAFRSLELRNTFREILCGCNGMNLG
Chain of human melanocortin 3 receptor (human) (P41968 whole entry): as above
T2 sequence (P32245 whole entry): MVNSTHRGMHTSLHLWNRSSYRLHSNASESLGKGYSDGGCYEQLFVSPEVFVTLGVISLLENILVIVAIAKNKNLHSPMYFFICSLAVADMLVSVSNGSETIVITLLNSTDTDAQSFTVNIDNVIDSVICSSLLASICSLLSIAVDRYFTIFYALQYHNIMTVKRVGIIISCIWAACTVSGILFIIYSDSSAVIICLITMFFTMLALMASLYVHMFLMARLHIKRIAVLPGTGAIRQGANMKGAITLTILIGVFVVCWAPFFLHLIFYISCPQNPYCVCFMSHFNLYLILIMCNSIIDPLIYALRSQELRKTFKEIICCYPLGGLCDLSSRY
Chain of human melanocortin 4 receptor (human) (P32245 whole entry): as above

EC50, cAMP bioassay (ECL) in CHO-K1 cells expressing hMC1-R [9] [nM] | EC50, cAMP bioassay (ECL) in CHO-K1 cells expressing hMC3-R [10] [nM] | EC50, cAMP bioassay (ECL) in CHO-K1 cells expressing hMC4-R [11] [nM] | EC50, cAMP bioassay (ECL) in CHO-K1 cells expressing hMC5-R [12] [nM] | Ki [13] [nM] | Compound | Ki (hMC3-R [1]) [nM] | Ki (hMC4-R [2]) [nM] | Ki (hMC5-R [3]) [nM] | EC50 (hMC3-R [4]) [nM] | EC50 (hMC4-R [5]) [nM] | EC50 (hMC5-R [6]) [nM] | EC50 (hMC1-R [7]) [nM] | Ki (hMC1-R [8]) [nM]
– | – | – | – | – | CC(=O)N[C@@H](Cc1cccc2ccccc12)C(=O)N[C@@H](CCCNC(=N)N)C(=O)N[C@H]1CSSC[C@@H](C(N)=O)NC(=O)[C@H](Cc2c[nH]c3ccccc23)NC(=O)[C@H](CCCNC(=N)N)NC(=O)[C@@H](Cc2ccccc2)NC(=O)[C@H](Cc2c[nH]cn2)NC(=O)[C@@H](C)NC1=O [Ac-1-Nal-Arg-c(Cys-D-Ala-His-D-Phe-Arg-Trp-Cys)-NH2] | 36.4 | 1.53 | 888 | 4.21 | 0.363 | 1320 | 8.67 | 6.27
– | – | – | – | – | CC(=O)N[C@@H](Cc1c(F)c(F)c(F)c(F)c1F)C(=O)N[C@@H](CCCNC(=N)N)C(=O)N[C@H]1CSSC[C@@H](C(N)=O)NC(=O)[C@H](Cc2c[nH]c3ccccc23)NC(=O)[C@H](CCCNC(=N)N)NC(=O)[C@@H](Cc2ccccc2)NC(=O)[C@H](Cc2c[nH]cn2)NC(=O)[C@@H](C)NC1=O [Ac-Pff-Arg-c(Cys-D-Ala-His-D-Phe-Arg-Trp-Cys)-NH2] | 1.33 | 1.95 | 786 | – | – | – | – | 0.323
– | – | – | – | – | CC(=O)N[C@@H](Cc1c[nH]c2ccccc12)C(=O)N[C@@H](CCCNC(=N)N)C(=O)N[C@H]1CSSC[C@@H](C(N)=O)NC(=O)[C@H](Cc2c[nH]c3ccccc23)NC(=O)[C@H](CCCNC(=N)N)NC(=O)[C@@H](Cc2ccccc2)NC(=O)[C@H](Cc2c[nH]cn2)NC(=O)[C@@H](C)NC1=O [Ac-Trp-Arg-c(Cys-D-Ala-His-D-Phe-Arg-Trp-Cys)-NH2] (Ac-WRC[dA]H[dF]RWC-NH2; disulfide 3-9) | 42 | 2.25 | 1470 | 3.95 | 0.219 | 2580 | 5.78 | 4.7
5.78 | 3.95 | 0.219 | 2580 | – | Ac-Trp-Arg-c(Cys-D-Ala-His-D-Phe-Arg-Trp-Cys)-NH2 (peptide) | – | – | – | – | – | – | – | –
9.66 | 6.11 | 0.275 | 1730 | – | Ac-2-Nal-Arg-c(Cys-D-Ala-His-D-Phe-Arg-Trp-Cys)-NH2 (peptide) | – | – | – | – | – | – | – | –
– | 2.39 | – | 1540 | 21.2 | Ac-Tyr-Arg-c(Cys-D-Ala-His-D-Phe-Arg-Trp-Cys)-NH2 (peptide) | – | – | – | – | – | – | – | –
– | – | – | – | – | CC(=O)N[C@@H](Cc1ccc2ccccc2c1)C(=O)N[C@@H](CCCNC(=N)N)C(=O)N[C@H]1CSSC[C@@H](C(N)=O)NC(=O)[C@H](Cc2c[nH]c3ccccc23)NC(=O)[C@H](CCCNC(=N)N)NC(=O)[C@@H](Cc2ccccc2)NC(=O)[C@H](Cc2c[nH]cn2)NC(=O)[C@@H](C)NC1=O [Ac-2-Nal-Arg-c(Cys-D-Ala-His-D-Phe-Arg-Trp-Cys)-NH2] | 34.9 | 2.02 | 864 | 6.11 | 0.275 | 1730 | 9.66 | 6.09
– | – | – | – | – | CC(=O)N[C@@H](Cc1ccc(O)cc1)C(=O)N[C@@H](CCCNC(=N)N)C(=O)N[C@H]1CSSC[C@@H](C(N)=O)NC(=O)[C@H](Cc2c[nH]c3ccccc23)NC(=O)[C@H](CCCNC(=N)N)NC(=O)[C@@H](Cc2ccccc2)NC(=O)[C@H](Cc2c[nH]cn2)NC(=O)[C@@H](C)NC1=O [Ac-Tyr-Arg-c(Cys-D-Ala-His-D-Phe-Arg-Trp-Cys)-NH2] | – | – | 714 | – | – | 1540 | – | –
8.67 | 4.21 | 0.363 | 1320 | – | Ac-1-Nal-Arg-c(Cys-D-Ala-His-D-Phe-Arg-Trp-Cys)-NH2 (peptide) | – | – | – | – | – | – | – | –
– | – | – | – | – | CC(=O)N[C@@H](Cc1ccccc1)C(=O)N[C@@H](CCCNC(=N)N)C(=O)N[C@H]1CSSC[C@@H](C(N)=O)NC(=O)[C@H](Cc2c[nH]c3ccccc23)NC(=O)[C@H](CCCNC(=N)N)NC(=O)[C@@H](Cc2ccccc2)NC(=O)[C@H](Cc2c[nH]cn2)NC(=O)[C@@H](C)NC1=O [Ac-Phe-Arg-c(Cys-D-Ala-His-D-Phe-Arg-Trp-Cys)-NH2] (Ac-FRC[dA]H[dF]RWC-NH2; disulfide 3-9) | 14.8 | 2.34 | 491 | – | – | – | – | 1.48
